Holding throughout (experiment): growth of human tumour cells (NCI), 48 h
Test [1] relates to COLO 205 colon.
Test [2] concerns KM12 colon.
Test [3] relates to OVCAR-3 ovarian.
In test [4] the test system is OVCAR-4 ovarian.
Test [5] deals with OVCAR-8 ovarian.
Test [6] concerns SF-295 CNS.
Test [7] relates to SK-MEL-28 melanoma.
The subject of test [8] is SNB-19 CNS.
Test [9] deals with SR leukemia.
In test [10] the test system is TK-10 renal.

The source of these data is PubChem BioAssay (NCI).

The structures appear in SMILES notation.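 Tested at 5 concentrations; 48 h exposure; 96-well plates; endpoints linearly interpolated, else capped at highest concentration. TGI: total growth inhibition.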

As for `CNc1nc(=O)c(C#N)c(-c2ccc(C)cc2)s1`, the TGI in [1], in test [2], in test [3], in test [4], in test [5] and in test [6] was greater than 100 µM throughout. In addition, the TGI in [7], in test [8], in test [9] and in [10] was greater than 100 µM each time.
As to `CCOC(=S)SC/C(=N\OC(C)(C)OC)c1ccccc1`, the TGI in [1], in [2], in test [3], in test [4], in test [5] and in [6] was greater than 100 µM in each case. Besides, the TGI is greater than 100 µM in test [7], greater than 100 µM in test [8], 35.9 µM in test [9] and greater than 100 µM in test [10].
On to `CCOC(=O)C1CCCC1S(=O)(=O)c1ccc(C)cc1` (stereo not given), for which the TGI in [1], in test [2], in test [3], in [4], in test [5] and in test [6] was greater than 100 µM each time. Further, the TGI in [7], in test [8], in test [9] and in [10] was greater than 100 µM in each case.
With `Nc1nc(SCc2ccccc2[N+](=O)[O-])c2[nH]cnc2n1`, the TGI is greater than 71.7 µM in test [1]; greater than 100 µM in test [2]; greater than 100 µM in [3]; greater than 100 µM in test [4]; greater than 100 µM in [5]; greater than 100 µM in [6]. The TGI in [7] was greater than 100 µM; in test [8], greater than 100 µM; in test [9], greater than 100 µM; in [10], greater than 62.7 µM.
For the compound `COc1cc(OC)c(NC2=NCCO2)cc1Cl`, the TGI in test [1] is 38.2 µM; in test [2], 39.1 µM; in test [3], greater than 100 µM; in test [4], greater than 100 µM; in test [5], greater than 100 µM; in [6] it was greater than 100 µM. Besides, the TGI in test [7] is greater than 100 µM; in test [8] it was greater than 100 µM; in test [9] it was 83.2 µM; in [10], greater than 100 µM.
On to `Cc1ccc(N2C(=O)C(O)=C(C(=O)C(C)(C)C)C2c2ccc([N+](=O)[O-])cc2)cc1` (stereo not given), for which the TGI in test [1] amounted to 32.3 µM; in test [2], 67.3 µM; in test [3], 93.5 µM; in [4], 22.3 µM; in test [5] it was 59.1 µM; in test [6] it was 88.8 µM. The TGI was 63.6 µM in test [7], greater than 100 µM in [8], 24.7 µM in test [9] and 90.8 µM in [10].
For `O=C(OCc1c(-c2ccccc2)nn(-c2ccccc2)c1COC(=O)Oc1ccccc1)Oc1ccccc1`, the TGI in [1], in test [2], in test [3], in test [4], in [5] and in test [6] was greater than 100 µM throughout. Moreover, the TGI in [7], in [8], in test [9] and in test [10] was greater than 100 µM throughout.
